Results published in the NIST ThermoML archive (doi:10.1021/je4009238).

Experiments:
[1] = xn = mol fraction of the nth substance listed; conditions: 318.15 K, 101 kPa, Liquid
[2] = refractive index (Na D-line) (dimensionless); xn = mol fraction of the nth substance listed; conditions: 101 kPa, Liquid

CCCCn1cc[n+](C)c1.[Cl-] [1-butyl-3-methylimidazolium chloride] + CN(C)C=O
[1]
Conditions	mass density [kg/m3]	viscosity [mPa·s]
x1 = 0.0086	929.42	0.7351
x1 = 0.0172	933.2	0.772
x1 = 0.026	936.41	0.8352
x1 = 0.0351	940.14	0.8995
x1 = 0.0443	943.38	0.9641
x1 = 0.0541	946.75	1.026
x1 = 0.0638	950.28	1.078
x1 = 0.0738	953.24	1.175
x1 = 0.0841	956.58	1.241
x1 = 0.0947	959.89	1.311
x1 = 0.1056	962.99	1.424
x1 = 0.1167	966.03	1.518
x1 = 0.1282	969.28	1.651
x1 = 0.1399	972.26	1.796
x1 = 0.152	975.4	1.944

refractive index, [2]
Conditions	288.15 K	298.15 K	308.15 K	318.15 K
x1 = 0.0086	1.43562	1.43088	1.42611	1.42147
x1 = 0.0172	1.43757	1.43313	1.42836	1.42379
x1 = 0.026	1.4401	1.43537	1.4306	1.42611
x1 = 0.0351	1.44223	1.43761	1.43285	1.42842
x1 = 0.0443	1.44442	1.4398	1.43505	1.43069
x1 = 0.0541	1.4466	1.44206	1.43731	1.43303
x1 = 0.0638	1.44861	1.44422	1.43948	1.43526
x1 = 0.0738	1.45083	1.44638	1.44163	1.43748
x1 = 0.0841	1.45282	1.44852	1.44378	1.4397
x1 = 0.0947	1.45492	1.45063	1.4459	1.44188
x1 = 0.1056	1.45766	1.45271	1.44799	1.44402
x1 = 0.1167	1.45909	1.45475	1.45003	1.44612
x1 = 0.1282	1.46111	1.45676	1.45205	1.4482
x1 = 0.1399	1.46315	1.45871	1.45401	1.45021
x1 = 0.152	1.46516	1.46064	1.45595	1.45219
